From ChEMBL document CHEMBL1944604, “Aminopurine based JNK inhibitors for the prevention of ischemia reperfusion injury” (Bioorg Med Chem Lett, 2012)
≈ marks a conversion by molar mass, not a printed value.

How the values were obtained:
[1] = biological target: Mitogen-activated protein kinase 9 (Homo sapiens, UniProt P45984); assay: Inhibition of full length Hexa-His-tagged JNK2 using GST-tagged cJun and [gamma33P]ATP as substrate after 60 mins by scintillation counting
[2] = Metabolic stability in rat liver S9 fraction assessed as compound remaining after 60 mins; assay type: ADME, subcellular; settings: read-out: Stability
[3] = biological target: Mitogen-activated protein kinase 10 (Homo sapiens, UniProt P53779); assay: Inhibition of full length Hexa-His-tagged JNK3 using GST-tagged cJun and [gamma33P]ATP as substrate after 60 mins by scintillation counting
[4] = biological target: Mitogen-activated protein kinase 8 (Homo sapiens, UniProt P45983); assay: Inhibition of full length Hexa-His-tagged JNK1 using GST-tagged cJun and [gamma33P]ATP as substrate after 60 mins by scintillation counting
[5] = Metabolic stability in human liver S9 fraction assessed as compound remaining after 60 mins; assay type: ADME, subcellular; settings: read-out: Stability
[6] = biological target: Mitogen-activated protein kinase 14 (Homo sapiens, UniProt Q16539); assay: Inhibition of p38alpha using MBP and [gamma33P]ATP as substrate after 60 mins by scintillation counting
[7] = Half life in rat microsomes; assay type: ADME, Microsome
[8] = Half life in human microsomes; assay type: ADME, Microsome
[9] = Aqueous solubility of the compound at pH 7.4; assay type: physicochemical
[10] = biological target: c-Jun N-terminal kinase, JNK (Homo sapiens, UniProt P45983+P53779+P45984); assay: Inhibition of JNK-mediated cJun phosphorylation in anisomysin-stimulated human Jurkat T cells pretreated for 30 mins before anisomysin stimulation measured after 10 mins by DELFIA assay; assay type: cell-based
[11] = Thermodynamic solubility of the compound at pH 5; assay type: physicochemical; settings: buffer, read-out: Therm_solubility
[12] = Volume of distribution at steady state in rat at 2 to 10 mg/kg, iv; assay type: ADME, organism-based; parameters: dose 2-10 mg/kg, route intravenous; settings: in vivo, read-out: Vdss
[13] = Clearance in rat at 2 to 10 mg/kg, iv; assay type: ADME, organism-based; parameters: dose 2-10 mg/kg, route intravenous; settings: in vivo
[14] = Aqueous solubility of the compound at pH 5; assay type: physicochemical

Chain of Mitogen-activated protein kinase 14 (Q16539 whole entry): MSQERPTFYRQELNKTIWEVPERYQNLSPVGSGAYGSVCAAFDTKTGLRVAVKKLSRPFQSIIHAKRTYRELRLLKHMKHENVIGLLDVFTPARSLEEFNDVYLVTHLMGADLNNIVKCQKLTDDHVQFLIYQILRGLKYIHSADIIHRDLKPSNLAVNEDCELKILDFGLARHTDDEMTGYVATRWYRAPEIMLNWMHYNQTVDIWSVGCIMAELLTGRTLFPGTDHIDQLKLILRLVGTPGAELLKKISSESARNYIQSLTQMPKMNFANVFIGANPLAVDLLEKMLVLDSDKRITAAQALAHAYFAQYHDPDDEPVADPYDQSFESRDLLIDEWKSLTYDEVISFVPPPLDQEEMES
Chain of Mitogen-activated protein kinase 8 (P45983 whole entry): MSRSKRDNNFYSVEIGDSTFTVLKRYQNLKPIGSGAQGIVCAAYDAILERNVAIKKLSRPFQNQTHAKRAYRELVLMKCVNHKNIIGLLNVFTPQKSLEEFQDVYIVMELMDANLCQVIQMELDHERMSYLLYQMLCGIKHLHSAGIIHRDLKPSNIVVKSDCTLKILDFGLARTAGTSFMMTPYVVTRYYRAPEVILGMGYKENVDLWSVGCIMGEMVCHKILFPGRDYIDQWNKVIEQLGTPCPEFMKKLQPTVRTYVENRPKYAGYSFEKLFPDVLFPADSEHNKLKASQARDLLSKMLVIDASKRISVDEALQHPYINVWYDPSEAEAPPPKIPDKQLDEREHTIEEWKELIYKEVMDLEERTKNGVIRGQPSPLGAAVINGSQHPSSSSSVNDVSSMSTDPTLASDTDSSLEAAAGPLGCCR
Chain of Mitogen-activated protein kinase 9 (P45984 whole entry): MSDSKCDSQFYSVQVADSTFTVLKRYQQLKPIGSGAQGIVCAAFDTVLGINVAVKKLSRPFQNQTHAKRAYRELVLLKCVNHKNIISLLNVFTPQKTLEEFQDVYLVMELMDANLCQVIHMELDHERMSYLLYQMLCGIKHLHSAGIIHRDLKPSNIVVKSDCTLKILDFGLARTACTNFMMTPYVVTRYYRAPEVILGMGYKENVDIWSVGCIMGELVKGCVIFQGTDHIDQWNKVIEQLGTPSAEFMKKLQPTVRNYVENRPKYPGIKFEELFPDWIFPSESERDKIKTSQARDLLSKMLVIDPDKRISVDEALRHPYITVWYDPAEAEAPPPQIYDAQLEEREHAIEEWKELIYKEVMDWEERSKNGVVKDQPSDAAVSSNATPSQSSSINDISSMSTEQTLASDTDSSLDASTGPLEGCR
Chain of Mitogen-activated protein kinase 10 (P53779 whole entry): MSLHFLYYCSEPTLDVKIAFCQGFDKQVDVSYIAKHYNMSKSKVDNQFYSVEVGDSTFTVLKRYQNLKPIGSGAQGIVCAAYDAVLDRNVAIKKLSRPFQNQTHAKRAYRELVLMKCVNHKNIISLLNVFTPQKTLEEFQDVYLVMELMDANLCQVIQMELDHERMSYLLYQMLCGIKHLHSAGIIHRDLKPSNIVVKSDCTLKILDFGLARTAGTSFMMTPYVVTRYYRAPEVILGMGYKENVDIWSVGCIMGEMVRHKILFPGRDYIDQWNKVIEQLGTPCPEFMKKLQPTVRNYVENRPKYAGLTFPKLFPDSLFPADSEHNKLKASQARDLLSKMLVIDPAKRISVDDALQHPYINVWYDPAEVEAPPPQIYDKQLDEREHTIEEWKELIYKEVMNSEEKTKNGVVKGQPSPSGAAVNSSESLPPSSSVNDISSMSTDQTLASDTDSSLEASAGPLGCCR

SMILES | IC50 [1] [nM] | remaining at 1 h [2] [%] | IC50 [3] [nM] | IC50 [4] [nM] | remaining at 1 h [5] [%] | IC50 [6] [nM] | half-life [7] [min] | half-life [8] [min] | solubility [9] [µg/mL] | IC50 [10] [µM] | solubility thermodynamic [11] [µg/mL] | Vd [12] [L/kg] | clearance [13] [mL/min/kg] | solubility [14] [µg/mL]
COc1ccc(Nc2ncc3nc(Nc4ccccc4)n(C4CCCC4)c3n2)cc1 | 800 | > 70 | > 1000 | > 10000 | > 70 | > 30000 |  |  |  |  |  |  |  | 
COc1ccc(Nc2ncc3nc(Nc4c(F)cccc4F)n(C4CCCC4)c3n2)cc1 | 46 | > 70 | 130 | 1100 | > 70 | 3500 |  |  |  |  |  |  |  | 
CC(C)Nc1ncc2nc(Nc3ccccc3F)n(C3CCCC3)c2n1 | 66 |  | 110 | 800 |  | 1200 |  |  |  |  |  |  |  | 
CCn1c(Nc2ccccc2F)nc2cnc(Nc3ccc(OC)cc3)nc21 | 430 |  | 360 | 3600 |  | 9300 |  |  |  |  |  |  |  | 
COc1ccc(Nc2ncc3nc(Nc4ccccc4F)n(C4CCCCC4)c3n2)cc1 | 140 |  | 360 | 2900 |  | > 3000 |  |  |  |  |  |  |  | 
COc1ccc(Nc2ncc3nc(Nc4ccccc4F)n([C@H]4CC[C@H](N)CC4)c3n2)cc1 | 240 |  | 240 | 2600 |  | 210 |  |  |  |  |  |  |  | 
COc1ccc(Nc2ncc3nc(Nc4ccccc4F)n([C@H]4CC[C@@H](O)CC4)c3n2)cc1 | 14 |  | 17 | 160 |  | 1600 |  |  |  |  |  |  |  | 
COc1ccc(Nc2ncc3nc(Nc4ccccc4F)n(C4CCOCC4)c3n2)cc1 | 52 |  | 63 | 490 |  | 2800 |  |  |  |  |  |  |  | 
N[C@H]1CC[C@H](Nc2ncc3nc(Nc4c(F)cccc4F)n(C4CCCC4)c3n2)CC1 | 9 |  | 13 | 91 |  | 490 |  |  |  | 0.21 | 852 (≈ 1990 µM) | 66 | 118 | 
Cl.N[C@H]1CC[C@H](Nc2ncc3nc(Nc4ccc(F)cc4F)n(C4CCCC4)c3n2)CC1 |  |  |  |  |  |  |  |  |  |  |  |  |  | 5.7

Now from value to compound, other results behind:

IC50 [1] [nM] | remaining at 1 h [2] [%] | IC50 [3] [nM] | IC50 [4] [nM] | remaining at 1 h [5] [%] | IC50 [6] [nM] | half-life [7] [min] | half-life [8] [min] | solubility [9] [µg/mL] | IC50 [10] [µM] | solubility thermodynamic [11] [µg/mL] | Vd [12] [L/kg] | clearance [13] [mL/min/kg] | SMILES | solubility [14] [µg/mL]
120 | 35 |  | 1100 | 86 | > 3000 | 101 | 62 | 447 (≈ 1070 µM) |  |  |  |  | COc1ccc(Nc2ncc3nc(Nc4ccccc4F)n(C4CCCC4)c3n2)cc1 | 
> 10000 | > 70 | > 10000 | > 10000 | > 70 | > 30000 |  |  |  |  |  |  |  | COc1ccc(Nc2ncc3nc(Nc4ccccc4Cl)n(C4CCCC4)c3n2)cc1 | 
130 | > 70 | 140 | 2500 | > 70 | 1300 |  |  |  |  |  |  |  | COc1ccc(Nc2ncc3nc(Nc4ccc(F)cc4F)n(C4CCCC4)c3n2)cc1 | 
360 |  | 680 | 6300 |  | > 30000 |  |  |  |  |  |  |  | CNc1ncc2nc(Nc3ccccc3F)n(C3CCCC3)c2n1 | 
140 |  | 260 | 1800 |  | 2600 |  |  |  |  |  |  |  | CCNc1ncc2nc(Nc3ccccc3F)n(C3CCCC3)c2n1 | 
46 |  | 50 | 580 |  | 1500 |  |  |  |  |  |  |  | Fc1ccccc1Nc1nc2cnc(NC3CCCCC3)nc2n1C1CCCC1 | 
10 |  | 12 | 75 |  | 510 |  |  | < 2.5 |  |  |  |  | O[C@H]1CC[C@H](Nc2ncc3nc(Nc4ccccc4F)n(C4CCCC4)c3n2)CC1 | 
26 |  | 31 | 230 |  | 210 |  |  |  | 0.3 | 869 (≈ 2120 µM) |  |  | N[C@H]1CC[C@H](Nc2ncc3nc(Nc4ccccc4F)n(C4CCCC4)c3n2)CC1 | 
83 |  | 96 | 840 |  | 2100 |  |  |  |  |  |  |  | COc1ccc(Nc2ncc3nc(Nc4ccccc4F)n(C(C)C)c3n2)cc1 | 
1000 |  | > 300 | > 10000 |  | > 3000 |  |  |  |  |  |  |  | COc1ccc(Nc2ncc3nc(Nc4ccccc4F)n(-c4ccccc4)c3n2)cc1 | 
22 |  | 24 | 180 |  | 240 |  |  |  |  |  |  |  | COc1ccc(Nc2ncc3nc(Nc4ccccc4F)n([C@H]4CC[C@@H](C(N)=O)CC4)c3n2)cc1 | 
11 |  | 16 | 150 |  | 490 |  |  |  | 0.24 | > 1000 | 90 | 88 | N[C@H]1CC[C@H](Nc2ncc3nc(Nc4c(F)cc(F)cc4F)n(C4CCCC4)c3n2)CC1 | 
